Columns and labels:
Type in all cases: in vivo
Echinochloa crus-galli [1] = test: Test Example 11: herbicidal effect test by soil treatment in paddy field; details: 120 g/10a active ingredient, 14 days after treatment
How it was run: (§1)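 Dry weight at day 14 relative to untreated controls gives the suppression rate; duplicate pots. Treatment: 120 g a.i./10 are into paddy water at sowing.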

Lindernia pyxidaria [2] = test: as above; details: 120 g/10a active ingredient, 14 days after treatment
How it was run: as §1

Monochoria vaginalis [3] = test: as above; details: 120 g/10a active ingredient, 14 days after treatment
How it was run: as §1

Scirpus juncoides [4] = test: as above; details: 120 g/10a active ingredient, 14 days after treatment
How it was run: as §1

Echinochloa crus-galli [5] = test: Test Example 12: herbicidal effect test by treatment during growing period in paddy field; details: 120 g/10a; treatment seven days after sowing in flooded paddy pot; assessed 14 days after treatment
How it was run: (§2)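 Paddy soil + NPK 17:17:17, puddled; 30 seeds/species sown 0–1 cm; flooded ~3 cm, greenhouse. Day 7 post-sowing: EC diluted in water, applied dropwise into water, 120 g a.i./10 are. Day 14 post-treatment: dry weight vs untreated → % suppression; n=2.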

Lindernia pyxidaria [6] = test: as above; details: 120 g/10a; treatment seven days after sowing in flooded paddy pot; assessed 14 days after treatment
How it was run: as §2

Monochoria vaginalis [7] = test: as above; details: 120 g/10a; treatment seven days after sowing in flooded paddy pot; assessed 14 days after treatment
How it was run: as §2

Scirpus juncoides [8] = test: as above; details: 120 g/10a; treatment seven days after sowing in flooded paddy pot; assessed 14 days after treatment
How it was run: as §2

Amaranthus viridis [9] = test: Test Example 13: herbicidal effect test by soil treatment in upland field; details: 120 g/10a, 14 days after treatment
Protocol: (§3) A pot having a size of 36 cm^2 was filled with field soil (alluvial soil) and after mixing the soil of the surface layer of 1 cm with 20 grains of each weed seed of crabgrass, Echinochloa crus-galli, Chenopodium album and Amaranthus viridis, the surface layer was pressed lightly. One day after the sowing, an emulsifiable concentrate prepared according to Formulation Example 15 by using the compound shown in Table 11 below was diluted with water, and the water-diluted formulation was sprayed on the soil surface at a ratio of 100 liter per 10 are. The application rate of the active ingredient, by conversion, corresponded to 120 g per 10 are. Fourteen Days after the formulation treatment, the herbicidal effect was evaluated by the same criteria as in Test Example 11.

Chenopodium album [10] = test: as above; details: 120 g/10a, 14 days after treatment
Protocol: as §3

Echinochloa crus-galli [11] = test: as above; details: 120 g/10a, 14 days after treatment
Protocol: as §3

crabgrass [12] = test: as above; details: 120 g/10a, 14 days after treatment
Protocol: as §3

Chenopodium album [13] = test: Test Example 14: herbicidal effect test by foliage treatment in upland field; details: 7 days after sowing, 120 g/10a, 14 days after treatment
How it was run: (§4)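 Post-sowing spray at day 7, 120 g a.i./10 are in 100 L water/10 are; alluvial soil pots, duplicate plots; endpoint day 14, % suppression from dry weight relative to untreated.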

crabgrass [14] = test: as above; details: 7 days after sowing, 120 g/10a, 14 days after treatment
How it was run: as §4

Amaranthus viridis [15] = test: as above; details: 7 days after sowing, 120 g/10a, 14 days after treatment
How it was run: as §4

Echinochloa crus-galli [16] = test: as above; details: 7 days after sowing, 120 g/10a, 14 days after treatment
How it was run: as §4

`CC(C)N(C(=O)n1cnn(S(=O)(=O)C(C)C)c1=O)c1c(F)c(F)cc(F)c1F` [Compound 11-64] was tested, and the “Weed suppression rate (%) Echinochloa crus-galli” value (Echinochloa crus-galli [1]) was 100%, the “Weed suppression rate (%) Lindemia pyxidaria” value (Lindernia pyxidaria [2]) was 100% and the “Weed suppression rate (%) Monochoria vaginalis” value (Monochoria vaginalis [3]) was 90%. For the same compound, the “Weed suppression rate (%) Scirpus juncoides” value (Scirpus juncoides [4]) was 100%, the “Weed suppression rate (%) Echinochloa crus-galli” value (Echinochloa crus-galli [5]) was 100% and the “Weed suppression rate (%) Lindemia pyxidaria” value (Lindernia pyxidaria [6]) was 80%. The “Weed suppression rate (%) Monochoria vaginalis” value (Monochoria vaginalis [7]) was 90%, the “Weed suppression rate (%) Scirpus juncoides” value (Scirpus juncoides [8]) was 100% and the “herbicidal effect, Amaranthus viridis” value (Amaranthus viridis [9]) was 60%. For the same compound, the “herbicidal effect, Chenopodium album” value (Chenopodium album [10]) was 60%, the “herbicidal effect, Echinochloa crus-galli” value (Echinochloa crus-galli [11]) was 100% and the “herbicidal effect, Crabgrass” value (crabgrass [12]) was 100%. For the same compound, the “herbicidal effect, Chenopodium album” value (Chenopodium album [13]) was 60%, the “herbicidal effect, Crabgrass” value (crabgrass [14]) was 100% and the “herbicidal effect, Amaranthus viridis” value (Amaranthus viridis [15]) was 60%. The “herbicidal effect, Echinochloa crus-galli” value (Echinochloa crus-galli [16]) was 90%.
For `CCS(=O)(=O)n1ncn(C(=O)N(c2ccc(F)cc2F)C(C)C)c1=O` [Compound 11-46], the “Weed suppression rate (%) Echinochloa crus-galli” value (Echinochloa crus-galli [1]) was 100%, the “Weed suppression rate (%) Lindemia pyxidaria” value (Lindernia pyxidaria [2]) was 100% and the “Weed suppression rate (%) Monochoria vaginalis” value (Monochoria vaginalis [3]) was 100%. The “Weed suppression rate (%) Scirpus juncoides” value (Scirpus juncoides [4]) was 90%, the “Weed suppression rate (%) Echinochloa crus-galli” value (Echinochloa crus-galli [5]) was 100% and the “Weed suppression rate (%) Lindemia pyxidaria” value (Lindernia pyxidaria [6]) was 100%. For the same compound, the “Weed suppression rate (%) Monochoria vaginalis” value (Monochoria vaginalis [7]) was 90%, the “Weed suppression rate (%) Scirpus juncoides” value (Scirpus juncoides [8]) was 90% and the “herbicidal effect, Amaranthus viridis” value (Amaranthus viridis [9]) was 100%. The “herbicidal effect, Chenopodium album” value (Chenopodium album [10]) was 100%, the “herbicidal effect, Echinochloa crus-galli” value (Echinochloa crus-galli [11]) was 100% and the “herbicidal effect, Crabgrass” value (crabgrass [12]) was 100%. The “herbicidal effect, Chenopodium album” value (Chenopodium album [13]) was 90%, the “herbicidal effect, Crabgrass” value (crabgrass [14]) was 100% and the “herbicidal effect, Amaranthus viridis” value (Amaranthus viridis [15]) was 60%. The “herbicidal effect, Echinochloa crus-galli” value (Echinochloa crus-galli [16]) was 100%.
In the case of `Cc1ccc(N(C(=O)n2cnn(S(=O)(=O)C3CCCCC3)c2=O)C(C)C)c(F)c1` [Compound 11-308], the “Weed suppression rate (%) Echinochloa crus-galli” value (Echinochloa crus-galli [1]) is reported as 90%, the “Weed suppression rate (%) Lindemia pyxidaria” value (Lindernia pyxidaria [2]) is reported as 90% and the “Weed suppression rate (%) Monochoria vaginalis” value (Monochoria vaginalis [3]) is reported as 90%. The “Weed suppression rate (%) Scirpus juncoides” value (Scirpus juncoides [4]) was 90%, the “Weed suppression rate (%) Echinochloa crus-galli” value (Echinochloa crus-galli [5]) was 90% and the “Weed suppression rate (%) Lindemia pyxidaria” value (Lindernia pyxidaria [6]) was 80%. For the same compound, the “Weed suppression rate (%) Monochoria vaginalis” value (Monochoria vaginalis [7]) was 80%, the “Weed suppression rate (%) Scirpus juncoides” value (Scirpus juncoides [8]) was 90% and the “herbicidal effect, Amaranthus viridis” value (Amaranthus viridis [9]) was 90%. For the same compound, the “herbicidal effect, Chenopodium album” value (Chenopodium album [10]) was 80%, the “herbicidal effect, Echinochloa crus-galli” value (Echinochloa crus-galli [11]) was 80% and the “herbicidal effect, Crabgrass” value (crabgrass [12]) was 90%.
`Cc1cc(F)ccc1N(C(=O)n1cnn(S(C)(=O)=O)c1=O)C(C)C` [Compound 11-25] was tested, and the “Weed suppression rate (%) Echinochloa crus-galli” value (Echinochloa crus-galli [1]) was 90%, the “Weed suppression rate (%) Lindemia pyxidaria” value (Lindernia pyxidaria [2]) was 70% and the “Weed suppression rate (%) Monochoria vaginalis” value (Monochoria vaginalis [3]) was 60%. The “Weed suppression rate (%) Scirpus juncoides” value (Scirpus juncoides [4]) was 90%, the “Weed suppression rate (%) Echinochloa crus-galli” value (Echinochloa crus-galli [5]) was 100% and the “Weed suppression rate (%) Lindemia pyxidaria” value (Lindernia pyxidaria [6]) was 70%. The “Weed suppression rate (%) Monochoria vaginalis” value (Monochoria vaginalis [7]) was 70%, the “Weed suppression rate (%) Scirpus juncoides” value (Scirpus juncoides [8]) was 100% and the “herbicidal effect, Amaranthus viridis” value (Amaranthus viridis [9]) was 30%. For the same compound, the “herbicidal effect, Chenopodium album” value (Chenopodium album [10]) was 30%, the “herbicidal effect, Echinochloa crus-galli” value (Echinochloa crus-galli [11]) was 80% and the “herbicidal effect, Crabgrass” value (crabgrass [12]) was 100%.
In the case of `CC(C)N(C(=O)n1cnn(S(=O)(=O)c2ccc(Cl)cc2)c1=O)c1ccc(F)cc1F` [Compound 11-588], the “Weed suppression rate (%) Echinochloa crus-galli” value (Echinochloa crus-galli [1]) is reported as 90%, the “Weed suppression rate (%) Lindemia pyxidaria” value (Lindernia pyxidaria [2]) is reported as 90% and the “Weed suppression rate (%) Monochoria vaginalis” value (Monochoria vaginalis [3]) is reported as 90%. The “Weed suppression rate (%) Scirpus juncoides” value (Scirpus juncoides [4]) was 90%, the “Weed suppression rate (%) Echinochloa crus-galli” value (Echinochloa crus-galli [5]) was 80% and the “Weed suppression rate (%) Lindemia pyxidaria” value (Lindernia pyxidaria [6]) was 90%. The “Weed suppression rate (%) Monochoria vaginalis” value (Monochoria vaginalis [7]) was 90%, the “Weed suppression rate (%) Scirpus juncoides” value (Scirpus juncoides [8]) was 70% and the “herbicidal effect, Amaranthus viridis” value (Amaranthus viridis [9]) was 40%. For the same compound, the “herbicidal effect, Chenopodium album” value (Chenopodium album [10]) was 80%, the “herbicidal effect, Echinochloa crus-galli” value (Echinochloa crus-galli [11]) was 80% and the “herbicidal effect, Crabgrass” value (crabgrass [12]) was 60%.
With `CCN(CC)C(=O)n1cnn(S(=O)(=O)c2ccccc2C)c1=O` [Compound 11-622] the “Weed suppression rate (%) Echinochloa crus-galli” value (Echinochloa crus-galli [1]) was 90%, the “Weed suppression rate (%) Lindemia pyxidaria” value (Lindernia pyxidaria [2]) was 40% and the “Weed suppression rate (%) Monochoria vaginalis” value (Monochoria vaginalis [3]) was 0%. For the same compound, the “Weed suppression rate (%) Scirpus juncoides” value (Scirpus juncoides [4]) was 40%, the “Weed suppression rate (%) Echinochloa crus-galli” value (Echinochloa crus-galli [5]) was 90% and the “Weed suppression rate (%) Lindemia pyxidaria” value (Lindernia pyxidaria [6]) was 50%. For the same compound, the “Weed suppression rate (%) Monochoria vaginalis” value (Monochoria vaginalis [7]) was 50%, the “Weed suppression rate (%) Scirpus juncoides” value (Scirpus juncoides [8]) was 50% and the “herbicidal effect, Amaranthus viridis” value (Amaranthus viridis [9]) was 40%. For the same compound, the “herbicidal effect, Chenopodium album” value (Chenopodium album [10]) was 40%, the “herbicidal effect, Echinochloa crus-galli” value (Echinochloa crus-galli [11]) was 90% and the “herbicidal effect, Crabgrass” value (crabgrass [12]) was 80%.
With `CCN(CC)C(=O)n1cnn(S(=O)(=O)c2ccccc2)c1=O` [Compound 11-352] the “Weed suppression rate (%) Echinochloa crus-galli” value (Echinochloa crus-galli [1]) was 100%, the “Weed suppression rate (%) Lindemia pyxidaria” value (Lindernia pyxidaria [2]) was 60% and the “Weed suppression rate (%) Monochoria vaginalis” value (Monochoria vaginalis [3]) was 50%. The “Weed suppression rate (%) Scirpus juncoides” value (Scirpus juncoides [4]) was 60%, the “Weed suppression rate (%) Echinochloa crus-galli” value (Echinochloa crus-galli [5]) was 100% and the “Weed suppression rate (%) Lindemia pyxidaria” value (Lindernia pyxidaria [6]) was 70%. For the same compound, the “Weed suppression rate (%) Monochoria vaginalis” value (Monochoria vaginalis [7]) was 60%, the “Weed suppression rate (%) Scirpus juncoides” value (Scirpus juncoides [8]) was 60% and the “herbicidal effect, Amaranthus viridis” value (Amaranthus viridis [9]) was 0%. For the same compound, the “herbicidal effect, Chenopodium album” value (Chenopodium album [10]) was 40%, the “herbicidal effect, Echinochloa crus-galli” value (Echinochloa crus-galli [11]) was 80% and the “herbicidal effect, Crabgrass” value (crabgrass [12]) was 80%.
With `CC(C)N(C(=O)n1cnn(S(=O)(=O)Cc2ccccc2)c1=O)c1ccc(F)cc1F` [Compound 11-944] the “Weed suppression rate (%) Echinochloa crus-galli” value (Echinochloa crus-galli [1]) was 90%, the “Weed suppression rate (%) Lindemia pyxidaria” value (Lindernia pyxidaria [2]) was 100% and the “Weed suppression rate (%) Monochoria vaginalis” value (Monochoria vaginalis [3]) was 100%. The “Weed suppression rate (%) Scirpus juncoides” value (Scirpus juncoides [4]) was 90%, the “Weed suppression rate (%) Echinochloa crus-galli” value (Echinochloa crus-galli [5]) was 90% and the “Weed suppression rate (%) Lindemia pyxidaria” value (Lindernia pyxidaria [6]) was 90%. For the same compound, the “Weed suppression rate (%) Monochoria vaginalis” value (Monochoria vaginalis [7]) was 90%, the “Weed suppression rate (%) Scirpus juncoides” value (Scirpus juncoides [8]) was 90% and the “herbicidal effect, Amaranthus viridis” value (Amaranthus viridis [9]) was 0%. For the same compound, the “herbicidal effect, Chenopodium album” value (Chenopodium album [10]) was 0%, the “herbicidal effect, Echinochloa crus-galli” value (Echinochloa crus-galli [11]) was 90% and the “herbicidal effect, Crabgrass” value (crabgrass [12]) was 90%.
For `CC(C)N(C(=O)n1cnn(S(=O)(=O)c2ccc(C(C)(C)C)cc2)c1=O)c1ccc(F)cc1F` [Compound 11-682], the “Weed suppression rate (%) Echinochloa crus-galli” value (Echinochloa crus-galli [1]) was 100%, the “Weed suppression rate (%) Lindemia pyxidaria” value (Lindernia pyxidaria [2]) was 90% and the “Weed suppression rate (%) Monochoria vaginalis” value (Monochoria vaginalis [3]) was 90%. For the same compound, the “Weed suppression rate (%) Scirpus juncoides” value (Scirpus juncoides [4]) was 90%, the “Weed suppression rate (%) Echinochloa crus-galli” value (Echinochloa crus-galli [5]) was 90% and the “Weed suppression rate (%) Lindemia pyxidaria” value (Lindernia pyxidaria [6]) was 90%. The “Weed suppression rate (%) Monochoria vaginalis” value (Monochoria vaginalis [7]) was 90%, the “Weed suppression rate (%) Scirpus juncoides” value (Scirpus juncoides [8]) was 80% and the “herbicidal effect, Amaranthus viridis” value (Amaranthus viridis [9]) was 40%. For the same compound, the “herbicidal effect, Chenopodium album” value (Chenopodium album [10]) was 40%, the “herbicidal effect, Echinochloa crus-galli” value (Echinochloa crus-galli [11]) was 90% and the “herbicidal effect, Crabgrass” value (crabgrass [12]) was 80%.
